Structures can show the parent of a compound that is named as a salt.

What all share (assay type): in vivo
A short description of series [1]: PK and oral bioavailability following dosing via oral gavage in rats. As to the method: Solutions of 9-[(2,2, dimethyl-propyl amino)-methyl]-minocycline freebase (5 mg/kg [2 ml/kg]) were administered by oral gavage. The solutions were composed of 9-[(2,2, dimethyl-propyl amino)-methyl]-minocycline alone or in combination with bioavailability enhancing agents to assess their effect on oral bioavailability.
The % F was calculated using the IV data presented in Example 1 and the equation: % F=Oral AUC/IV AUC.

A short description of series [2]: Effects of permeability enhancers on bioavailability, oral gavage in rats. As to the method: As a control, a solution of 9-[(2,2, dimethyl-propyl amino)-methyl]-minocycline freebase (“freebase”) was prepared using sterile water and the final pH was adjusted to ˜5. To prepare the sodium caprate (sodium decanoate, a compound that increases paracellular permeability) containing solution, the freebase was first dissolved in sterile water and sodium caprate was then added to a final concentration of 13 mM. The resulting solution was administered to rats via oral gavage without pH adjustment. The solution of freebase containing 1.5% chitosan was then prepared by first dissolving the freebase in sterile water and then adjusting the pH of this solution (pH ˜8.1) to a final pH ˜5 using 1N HCl. Chitosan was then added to a final concentration of 1.5% and the resulting solution was administered to rats via oral gavage as a slurry.

The nature of series [3]: PK following intravenous administration in rats. Particulars: for AUC: IV 1 mg/kg, jugular vein. As to the method: The bioavailability of 9-[(2,2, dimethyl-propyl amino)-methyl]-minocycline following intravenous administration in rats was studied. The freebase (“FB”) and the HCl salt (“HCl salt”) of 9-[(2,2, dimethyl-propyl amino)-methyl]-minocycline were used. All formulations were prepared fresh on the day of the experiment. Samples for pharmacokinetic analysis were collected from a cannula within the carotid artery of the rats. Intravenous doses of (1 mg/kg) were administered to rats through cannulas in either the jugular or portal veins.

Series [4] is described as follows: PK and bioavailability following intra-duodenal administration in rats. As to the method:
In order to measure the effect of delivering 9-[(2,2, dimethyl-propyl amino)-methyl]-minocycline directly into the duodenum, rats bearing duodenal cannulas were administered 9-[(2,2, dimethyl-propyl amino)-methyl]-minocycline freebase alone or in combination with bioavailability enhancing agents to assess their effects on bioavailability.

The mark [5] stands for this setting: rats with duodenal cannulas, intra-duodenal administration.

In the case of `CN(C)c1cc(CNCC(C)(C)C)c(O)c2c1C[C@H]1C[C@H]3[C@H](N(C)C)C(O)=C(C(N)=O)C(=O)[C@@]3(O)C(O)=C1C2=O` [FB, 9-[(2,2, dimethyl-propylamino)-methyl]-minocycline], in series [1] (oral gavage 5 mg/kg, calculated using the IV data of Example 1), the “% F (oral bioavailability)” value is 11.7 ± 4.1%. For the same molecule, the AUC in series [1] (oral gavage, 5 mg/kg [2 ml/kg] solution) is 330 ± 120 ng·h/mL; in series [2], 330 ± 120 ng·h/mL; in series [3] (fasted, 1 mg/kg) it was 0.57 (0.50; 0.63) ug*hr/mL; in series [4] (setting [5]), 440 ± 150 ng·h/mL. Further, the “% F” value in series [2] came to 11.7 ± 4.1%; in series [4] (setting [5]), 15.4 ± 5.2%. In series [3] (IV, fasted animals), the “differences in pharmacokinetic parameters, freebase vs HCl salt” value is “no significant differences”. Further, in series [3] (after IV dosing), the “effects of first pass hepatic elimination on pharmacokinetics” value was “no significant effects”. In addition, the “change in AUC when administered directly to the duodenum” value in series [4] (rats, intra-duodenal) is reported as “significant increase in AUC”.

Consider `CN(C)c1cc(CNCC(C)(C)C)c(O)c2c1C[C@H]1C[C@H]3[C@H](N(C)C)C(O)=C(C(N)=O)C(=O)[C@@]3(O)C(O)=C1C2=O` [HCl salt, 9-[(2,2, dimethyl-propylamino)-methyl]-minocycline], for which the AUC in series [3] (fasted, 1 mg/kg) is 0.59 (0.45; 0.73) ug*hr/mL. Also, the AUC in series [3] (fed) amounted to 0.46 ± 0.04 µg·h/mL. In series [3] (IV, fasted animals), the “differences in pharmacokinetic parameters, freebase vs HCl salt” value is given as “no significant differences”; the “total exposure (AUC) and clearance, portal vein vs jugular vein” value is recorded as “equal”. Further, in series [3] (IV, fed vs fasted), the “tendency for higher clearance in a fed group” value is on record as approximately 22%.
